Test results reported in patent US20250026766A1, “Thiazolopyridyl Amide Derivatives as DNA Polymerase Theta Inhibitors” (BeiGene, Ltd., priority 2022, published 2025).

Target: Pol Theta (1-894) (Homo sapiens (Human), UniProt O75417)
Test: Biochemical Pol Theta (1-894) ATPase IC50 assay (ADP-Glo, ssDNA substrate)
Conditions: ADP-Glo assay with ssDNA substrate, room temperature
Description: Baculovirus Expression of Human POL theta (1-894)
Human POL Theta (1-894)-His-pFastBac1 baculovirus samples were generated using the Bac-to-Bac baculovirus expression system (Invitrogen) according to the manufacturer's protocol. […] Baculovirus amplification was achieved using infected SF9 cells at 1:2000 virus/cells ratios, and grown for 96 hours at 27° C. post-transfection. The expression scaled up for each protein was carried out in the flask 3 L from CORNING. 4 L of 3×10^6 cells/mL Sf9 cells (Expression System, Invitrogen) grown in SF900TM II SFM insect medium (Expression System) were infected with virus stock at 1:200 virus/cell ratios, and grown for 48 hours at 27° C. post-transfection. The infected cell culture was harvested by centrifugation at 6000 rpm for 15 min 4° C. in a SORVALL LYNX6000 centrifuge. The cell pellets were stored at −80° C.
The human POL Theta (1-894)-His produced as described above, were purified from Sf9 baculovirus-infected insect cell paste. The cells were lysed using sonication method, and the lysates were clarified by centrifugation.
Enzymatic reactions of Pol Theta (1-894) were performed using ADP-Glo assay with ssDNA substrate. Pol Theta (1-894) was expressed in baculovirus expression system. The inhibition activities testing for the compound disclosed herein were carried out at room temperature in assay buffer containing 40 mM Tris pH 7.5, 20 mM MgCl2, 1 mM DTT, 0.01% BSA and 0.05% Tween-20. Compounds in DMSO were dispensed into wells of a black 384 well plate (Corning 4514) using D300e digital dispenser (Tecan). The ranges of compounds final concentration were 2.62 nM˜10000 nM. 3 μL 2× enzyme solution containing 12.5 nM enzyme was added to wells. […] After 1 hour reaction, 5 μL ADP-Glo reagent (Promga V9102) was added and incubated for 40 minutes. 10 μL Kinase Detection reagent was added and incubated for 40 minutes. Luminescence was measured on a microplate reader (PHERAstar FSX, BMG labtech). The IC50 values were calculated based on inhibition of enzyme activity in the presence of increasing concentrations of compounds.

Pol Theta (1-894), sequence (O75417 1-894): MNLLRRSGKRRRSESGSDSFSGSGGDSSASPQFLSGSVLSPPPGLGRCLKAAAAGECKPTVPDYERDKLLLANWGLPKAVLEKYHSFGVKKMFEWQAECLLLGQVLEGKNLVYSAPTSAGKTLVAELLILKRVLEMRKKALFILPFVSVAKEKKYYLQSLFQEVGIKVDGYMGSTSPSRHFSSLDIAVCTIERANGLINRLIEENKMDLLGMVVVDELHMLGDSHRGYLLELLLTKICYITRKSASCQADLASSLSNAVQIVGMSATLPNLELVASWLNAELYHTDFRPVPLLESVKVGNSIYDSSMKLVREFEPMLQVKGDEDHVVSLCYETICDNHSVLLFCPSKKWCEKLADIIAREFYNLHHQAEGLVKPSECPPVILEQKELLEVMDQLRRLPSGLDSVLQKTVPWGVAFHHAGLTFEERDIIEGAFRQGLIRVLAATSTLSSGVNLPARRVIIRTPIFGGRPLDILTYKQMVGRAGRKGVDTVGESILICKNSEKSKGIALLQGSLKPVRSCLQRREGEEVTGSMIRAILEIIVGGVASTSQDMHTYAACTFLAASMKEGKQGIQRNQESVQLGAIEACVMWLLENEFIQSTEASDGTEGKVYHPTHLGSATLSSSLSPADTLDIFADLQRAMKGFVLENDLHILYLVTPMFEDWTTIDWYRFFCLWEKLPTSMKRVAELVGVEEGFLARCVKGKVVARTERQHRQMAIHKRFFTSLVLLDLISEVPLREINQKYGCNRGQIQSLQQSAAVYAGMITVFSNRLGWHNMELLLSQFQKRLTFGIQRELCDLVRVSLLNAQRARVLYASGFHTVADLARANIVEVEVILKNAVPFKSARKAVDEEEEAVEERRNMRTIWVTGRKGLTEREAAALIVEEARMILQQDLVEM

Structure (SMILES) | IC50
COc1ccc(C#N)cc1-c1cc(C)ncc1C(=O)Nc1nc2ccc(-c3ccc(N4CCCC4=O)cc3)nc2s1 [Example 45, 4-(5-cyano-2-methoxyphenyl)-6-methyl-N-(5-(4-(2-oxopyrrolidin-1-yl)phenyl)thiazolo[5,4-b]pyridin-2-yl)nicotinamide] | 32 nM
COc1ccccc1-c1cc(C(=O)O)ncc1C(=O)Nc1nc2ccc(-c3ccc(NC(C)=O)cc3)nc2s1 [Example 46, 5-((5-(4-acetamidophenyl)thiazolo[5,4-b]pyridin-2-yl)carbamoyl)-4-(2-methoxyphenyl)picolinic acid] | 129 nM
COc1ccccc1-c1cnncc1C(=O)Nc1nc2ccc(-c3ccn[nH]3)nc2s1 [Example 47, N-(5-(1H-pyrazol-5-yl)thiazolo[5,4-b]pyridin-2-yl)-5-(2-methoxyphenyl)pyridazine-4-carboxamide] | 99 nM
COc1ccccc1-c1cnncc1C(=O)Nc1nc2ccc(-c3ccc(NS(C)(=O)=O)cc3)nc2s1 [Example 48, 5-(2-methoxyphenyl)-N-(5-(4-(methylsulfonamido)phenyl)thiazolo[5,4-b]pyridin-2-yl)pyridazine-4-carboxamide] | 9.5 nM
COc1ccc(OC)c(-c2cc(C)ncc2C(=O)Nc2nc3ccc(-c4ccc(C#N)cc4)nc3s2)c1 [Example 49, N-(5-(4-cyanophenyl)thiazolo[5,4-b]pyridin-2-yl)-4-(2,5-dimethoxyphenyl)-6-methylnicotinamide] | 150 nM
COc1ccc(C#N)cc1-c1cc(C)ncc1C(=O)Nc1nc2ccc(-c3ccc(NC(=O)C(C)C)cc3)nc2s1 [Example 50, 4-(5-cyano-2-methoxyphenyl)-N-(5-(4-isobutyramidophenyl)thiazolo[5,4-b]pyridin-2-yl)-6-methylnicotinamide] | 218 nM
COc1ccc(C#N)cc1-c1cc(C)ncc1C(=O)Nc1nc2ccc(-c3ccc(NC(=O)C(C)C)c(C)c3)nc2s1 [Example 51, 4-(5-cyano-2-methoxyphenyl)-N-(5-(4-isobutyramido-3-methylphenyl)thiazolo[5,4-b]pyridin-2-yl)-6-methylnicotinamide] | 15 nM
COc1ccc(S(C)(=O)=O)cc1-c1cc(C)ncc1C(=O)Nc1nc2ccc(-c3ccc(C#N)cc3)nc2s1 [Example 52, N-(5-(4-cyanophenyl)thiazolo[5,4-b]pyridin-2-yl)-4-(2-methoxy-5-(methylsulfonyl)phenyl)-6-methylnicotinamide] | 8.4 nM
Cc1cc(-c2ccccc2C#N)c(C(=O)Nc2nc3ccc(-c4ccc(C#N)cc4)nc3s2)cn1 [Example 53, 4-(2-cyanophenyl)-N-(5-(4-cyanophenyl)thiazolo[5,4-b]pyridin-2-yl)-6-methylnicotinamide] | 78 nM
Cc1cc(-c2ccc(=O)n(C)c2)c(C(=O)Nc2nc3ccc(-c4ccc(C#N)cc4)nc3s2)cn1 [Example 54, N-(5-(4-cyanophenyl)thiazolo[5,4-b]pyridin-2-yl)-1,6′-dimethyl-6-oxo-1,6-dihydro-[3,4′-bipyridine]-3′-carboxamide] | 64 nM
COc1ccccc1-c1cnncc1C(=O)Nc1nc2ccc(-c3ccc(Cl)cn3)nc2s1 [Example 55, N-(5-(5-chloropyridin-2-yl)thiazolo[5,4-b]pyridin-2-yl)-5-(2-methoxyphenyl)pyridazine-4-carboxamide] | 5 nM
COc1ccccc1-c1cnncc1C(=O)Nc1nc2ccc(-c3ccc(N(C)C(C)=O)cc3)nc2s1 [Example 56, 5-(2-methoxyphenyl)-N-(5-(4-(N-methylacetamido)phenyl)thiazolo[5,4-b]pyridin-2-yl)pyridazine-4-carboxamide] | 15 nM
COc1ccc(C2CC2)cc1-c1cc(C)ncc1C(=O)Nc1nc2ccc(-c3ccc(C#N)cc3)nc2s1 [Example 57, N-(5-(4-cyanophenyl)thiazolo[5,4-b]pyridin-2-yl)-4-(5-cyclopropyl-2-methoxyphenyl)-6-methylnicotinamide] | 58 nM
COc1ccc(C#N)cc1-c1cc(Cl)ncc1C(=O)Nc1nc2ccc(-c3ccc(N4CCOCC4)cc3)nc2s1 [Example 58, 6-chloro-4-(5-cyano-2-methoxyphenyl)-N-(5-(4-morpholinophenyl)thiazolo[5,4-b]pyridin-2-yl)nicotinamide] | 101 nM
COc1ccc(C#N)cc1-c1cc(C)ncc1C(=O)Nc1nc2ccc(-c3ccc(N4CCOCC4)cc3)nc2s1 [Example 59, 4-(5-cyano-2-methoxyphenyl)-6-methyl-N-(5-(4-morpholinophenyl)thiazolo[5,4-b]pyridin-2-yl)nicotinamide] | 98 nM
COc1ccc(C#N)cc1-c1cc(C)ncc1C(=O)Nc1nc2ccc(N3CCOCC3)nc2s1 [Example 60, 4-(5-cyano-2-methoxyphenyl)-6-methyl-N-(5-morpholinothiazolo[5,4-b]pyridin-2-yl)nicotinamide] | 361 nM
Cc1cc(-c2cccc3[nH]ncc23)c(C(=O)Nc2nc3ccc(-c4ccc(C#N)cc4)nc3s2)cn1 [Example 61, N-(5-(4-cyanophenyl)thiazolo[5,4-b]pyridin-2-yl)-4-(1H-indazol-4-yl)-6-methylnicotinamide] | 121 nM
COc1ccccc1-c1cnncc1C(=O)Nc1nc2ccc(CCc3ccc(Cl)cc3)nc2s1 [Example 62, N-(5-(4-chlorophenethyl)thiazolo[5,4-b]pyridin-2-yl)-5-(2-methoxyphenyl)pyridazine-4-carboxamide] | 24 nM
COc1ccccc1-c1cnncc1C(=O)Nc1nc2ccc(C#Cc3ccc(Cl)cc3)nc2s1 [Example 63, N-(5-((4-chlorophenyl)ethynyl)thiazolo[5,4-b]pyridin-2-yl)-5-(2-methoxyphenyl)pyridazine-4-carboxamide] | 31 nM
Cc1cc(-c2ccccc2CO)c(C(=O)Nc2nc3ccc(-c4ccc(C#N)cc4)nc3s2)cn1 [Example 64, N-(5-(4-cyanophenyl)thiazolo[5,4-b]pyridin-2-yl)-4-(2-(hydroxymethyl)phenyl)-6-methylnicotinamide] | 186 nM
COc1ccc(C#N)cc1-c1cc(C)ncc1C(=O)Nc1nc2ccc(OCCN3CCOCC3)nc2s1 [Example 65, 4-(5-cyano-2-methoxyphenyl)-6-methyl-N-(5-(2-morpholinoethoxy)thiazolo[5,4-b]pyridin-2-yl)nicotinamide] | 224 nM
COCc1ccc(OC)c(-c2cc(C)ncc2C(=O)Nc2nc3ccc(-c4ccc(C#N)cc4)nc3s2)c1 [Example 66, N-(5-(4-cyanophenyl)thiazolo[5,4-b]pyridin-2-yl)-4-(2-methoxy-5-(methoxymethyl)phenyl)-6-methylnicotinamide] | 99 nM
COc1ccc(C#N)cc1-c1cc(C)ncc1C(=O)Nc1nc2ccc(C3CCOCC3)nc2s1 [Example 67, 4-(5-cyano-2-methoxyphenyl)-6-methyl-N-(5-(tetrahydro-2H-pyran-4-yl)thiazolo[5,4-b]pyridin-2-yl)nicotinamide] | 64 nM
Cc1cc(-c2cccc3c2OCO3)c(C(=O)Nc2nc3ccc(-c4ccc(C#N)cc4)nc3s2)cn1 [Example 68, 4-(benzo[d][1,3]dioxol-4-yl)-N-(5-(4-cyanophenyl)thiazolo[5,4-b]pyridin-2-yl)-6-methylnicotinamide] | 253 nM
COc1ccccc1-c1cnncc1C(=O)Nc1nc2ccc(Cc3ccc(Cl)cc3)nc2s1 [Example 69, N-(5-(4-chlorobenzyl)thiazolo[5,4-b]pyridin-2-yl)-5-(2-methoxyphenyl)pyridazine-4-carboxamide] | 45 nM
Cc1cc(-c2cccc3c2OCC(=O)N3)c(C(=O)Nc2nc3ccc(-c4ccc(C#N)cc4)nc3s2)cn1 [Example 70, N-(5-(4-cyanophenyl)thiazolo[5,4-b]pyridin-2-yl)-6-methyl-4-(3-oxo-3,4-dihydro-2H-benzo[b][1,4]oxazin-8-yl)nicotinamide] | 193 nM
COc1ccccc1-c1cnncc1C(=O)Nc1nc2ccc(-c3ccc(NC(=O)C4CC4)cc3)nc2s1 [Example 71, N-(5-(4-(cyclopropanecarboxamido)phenyl)thiazolo[5,4-b]pyridin-2-yl)-5-(2-methoxyphenyl)pyridazine-4-carboxamide] | 83 nM
COc1ccccc1-c1cc(C)ncc1C(=O)Nc1nc2ccc(-c3ccc(C#N)cc3)nc2s1 [Example 72, N-(5-(4-cyanophenyl)thiazolo[5,4-b]pyridin-2-yl)-4-(2-methoxyphenyl)-6-methylnicotinamide] | 59 nM
CCNC(=O)c1ccc(-c2ccc3nc(NC(=O)c4cnc(C)cc4-c4cc(C#N)ccc4OC)sc3n2)cc1 [Example 73, 4-(5-cyano-2-methoxyphenyl)-N-(5-(4-(ethylcarbamoyl)phenyl)thiazolo[5,4-b]pyridin-2-yl)-6-methylnicotinamide] | 15 nM
